Assay results reported in patent US20090042906A1, “METHODS FOR TREATING CANCERS ASSOCIATED WITH CONSTITUTIVE EGFR SIGNALING” (Massachusetts Institute of Technology, priority 2007, published 2009).
Values belong to the compound of their own block, whether it stands above or below them.

Columns and labels:
[1] = system: U87H cells; test: Cell viability assay (WST-1); type: cell-based, human; details: for cell viability, combination with cisplatin: increasing doses of inhibitor with constant 10 μg/ml cisplatin, versus cisplatin only control; for cell viability, single agent: single treatment, 72 h after 24-h serum starvation; for cytotoxicity of combination treatment: 10 μM c-Met inhibitor plus 5 μM AG1478, P<0.001 (SU11274), P<0.0001 (PHA665752); for cell viability, combined dosing with AG1478: c-Met inhibitor dose-response plus constant 5 μM AG1478, 72 h
[2] = biological target: T1, c-Met receptor (Homo sapiens, UniProt P08581); test: Immunoblotting of c-Met receptor phosphorylation after kinase inhibitor treatment of U87H cells; type: cell-based; details: 1 h inhibitor dose escalation after 24-h serum starvation, Western blot
T1 construct: the U87MG cell line which expresses low levels of c-Met; endogenous in cells; host or cells: U87MG-derived U87H cells (human glioblastoma)
Procedure: For whole-cell extracts, cells were lysed in lysis buffer (20 mmol/L Tris-HCl, 150 mmol/L NaCl, 1 mmol/L EDTA, 1% Triton X-100, 2.5 mmol/L sodium PPi, 1 mmol/ ? glycerophosphate) containing protease and phosphatase inhibitors after the indicated treatment. Protein samples were separated on either 7.5% or 10% SDS-polyacrylamide gels and transferred onto polyvinylidene difluoride membrane. Blots were developed with supersignal West Femto substrate (Pierce) after incubation with primary and secondary antibodies. […] Cells were then lysed as described above for either immunoblotting or mass spectrometric analysis.

[3] = system: human glioblastoma xenografts expressing EGFRvIII; details: co-treatment of cisplatin with AG1478; cited from earlier work
[4] = biological target: T1, c-Met receptor; test: Mass spectrometric phosphotyrosine analysis of SU11274 treated U87H cells (c-Met); type: cell-based; details: mass spectrometry
[5] = biological target: T2, EGFRvIII receptor (Homo sapiens, UniProt P00533, DELINS30-297G); test: Mass spectrometric phosphotyrosine analysis of SU11274 treated U87H cells (EGFRvIII sites); type: cell-based; details: mass spectrometry (data not shown)
T2 construct: expressed in transfected cells; host or cells: U87MG human glioblastoma cells (U87H population), retroviral transduction with pLERNL
Procedure: U87MG cells expressing titrated levels of EGFRvIII were maintained in DMEM medium supplemented with 10% FBS. 1.5 million cells per 10 cm plate were washed with PBS and incubated for 24 hours in serum-free media. Cells were lysed with 8 M urea supplemented with 1 mM sodium orthovanadate (Sigma-Aldrich). For each biological replicate, three 10 cm plates were pooled together. The samples were then further processed and labeled with the iTRAQ reagent as previously described (Zhang et al. (2005) Mol Cell Proteom 4:1240-1250). Peptide immunoprecipitation was performed as previously described (Zhang et al. (2005) Mol Cell Proteom 4:1240-1250), with the following exceptions: 10 μg of protein G Plus-agarose beads (Calbiochem) were incubated with 12 μg of anti-phosphotyrosine antibody (pTyr100 (Cell Signaling Technology) in 200 μl of IP buffer (100 mM Tris, 100 mM NaCl, 1% NP-40, pH 7.4) for 8 hr at 4° C. Immobilized metal affinity chromatography (IMAC) was performed as previously described to remove non-specific non-phosphorylated peptides and eluted phosphopeptides were analyzed by ESI LC-MS/MS on a QqT of (QSTAR XL Pro, Applied Biosystems) operated in IDA mode, as previously described (Zhang et al. (2005) Mol Cell Proteom 4:1240-1250).
MS/MS spectra were extracted and searched against human protein database (NCBI) using ProQuant (Applied Biosystems) as recommended by the manufacturer. […]

[6] = system: U87H cells; test: Apoptosis assay (caspase 3/7 activity, Apo-ONE); type: cell-based, human
Procedure: 10,000 cells were seeded per well in a 96 well plate. […] After 24 hours of drug treatment, caspase 3/7 activity was measured using Apo-ONE Homogeneous Caspase-3/7 Assay (Promega), following the manufacturer's recommendations.

T1 sequence (P08581 25-1390): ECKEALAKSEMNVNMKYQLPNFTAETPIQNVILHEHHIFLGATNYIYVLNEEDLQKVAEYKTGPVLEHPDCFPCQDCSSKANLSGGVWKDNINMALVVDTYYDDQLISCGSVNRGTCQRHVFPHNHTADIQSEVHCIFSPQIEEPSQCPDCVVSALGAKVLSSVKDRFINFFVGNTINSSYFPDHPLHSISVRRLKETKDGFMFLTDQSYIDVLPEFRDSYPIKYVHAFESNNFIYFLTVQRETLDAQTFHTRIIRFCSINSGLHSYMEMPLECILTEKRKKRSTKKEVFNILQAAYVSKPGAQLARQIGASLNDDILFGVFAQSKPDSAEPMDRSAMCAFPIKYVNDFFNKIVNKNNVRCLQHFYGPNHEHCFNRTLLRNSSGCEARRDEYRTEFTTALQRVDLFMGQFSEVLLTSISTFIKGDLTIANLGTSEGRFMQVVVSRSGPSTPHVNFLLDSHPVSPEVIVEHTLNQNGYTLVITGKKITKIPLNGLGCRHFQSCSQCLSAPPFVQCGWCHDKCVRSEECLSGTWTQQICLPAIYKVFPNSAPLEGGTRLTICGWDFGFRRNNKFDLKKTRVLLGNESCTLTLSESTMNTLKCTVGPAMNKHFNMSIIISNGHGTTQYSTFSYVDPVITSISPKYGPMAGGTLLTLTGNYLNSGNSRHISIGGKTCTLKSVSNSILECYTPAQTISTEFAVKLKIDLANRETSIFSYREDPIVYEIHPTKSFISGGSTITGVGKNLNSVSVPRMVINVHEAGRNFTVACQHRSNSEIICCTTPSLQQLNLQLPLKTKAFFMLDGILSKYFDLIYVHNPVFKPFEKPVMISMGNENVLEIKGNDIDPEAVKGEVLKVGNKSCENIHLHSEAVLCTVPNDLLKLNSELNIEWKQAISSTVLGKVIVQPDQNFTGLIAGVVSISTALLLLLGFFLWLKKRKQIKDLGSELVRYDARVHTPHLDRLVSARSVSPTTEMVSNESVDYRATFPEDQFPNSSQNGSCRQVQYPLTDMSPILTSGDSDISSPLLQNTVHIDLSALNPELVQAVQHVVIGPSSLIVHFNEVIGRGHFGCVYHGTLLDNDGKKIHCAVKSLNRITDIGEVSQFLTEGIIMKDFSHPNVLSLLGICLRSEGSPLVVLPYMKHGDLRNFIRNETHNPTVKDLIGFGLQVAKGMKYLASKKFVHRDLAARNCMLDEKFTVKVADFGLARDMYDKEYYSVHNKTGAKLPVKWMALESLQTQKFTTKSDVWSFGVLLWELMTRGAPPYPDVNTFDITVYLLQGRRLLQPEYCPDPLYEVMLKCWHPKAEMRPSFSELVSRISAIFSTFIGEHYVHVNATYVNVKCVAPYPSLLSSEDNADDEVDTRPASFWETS

SMILES: N.N.[Cl][Pt][Cl] [cisplatin]
cell viability, cisplatin only ([1]; 10 μg/ml cisplatin over 72 h after 24-h serum starvation, WST-1): resistant

c-Met receptor phosphorylation (Y1230/Y1234/Y1235) [2]: concomitant decrease
SMILES: COc1cc2ncnc(Nc3cccc(Cl)c3)c2cc1OC [AG1478]
sensitisation of xenografts to cisplatin [3]: sensitized to cisplatin
cell viability, combination with cisplatin [1]: similar
cell viability, single agent ([1]; WST-1): only decreased cell viability at very high inhibitor doses

SMILES: Cc1[nH]c(/C=C2\C(=O)Nc3ccc(S(=O)(=O)N(C)c4cccc(Cl)c4)cc32)c(C)c1C(=O)N1CCN(C)CC1 [SU11274]
specificity for the kinase activity of the c-Met receptor [4]: exquisitely specific
EGFRvIII receptor tyrosine phosphorylation on multiple sites [5]: does not affect
c-Met receptor phosphorylation (Y1230/Y1234/Y1235) [2]: dose dependent decrease
apoptosis (caspase 3/7 cleavage), combination treatment ([6]; 10 μM SU11274 plus 5 μM AG1478, 24 h after 24-h serum starvation, P<0.01): significantly enhanced apoptosis
cell death, combined dosing with AG1478 ([6]; SU11274 with constant 5 μM AG1478): increase in cell death
cytotoxicity of combination treatment [1]: significantly enhanced cytotoxicity
cell viability, combined dosing with AG1478 ([1]; WST-1): synergistic decrease in cell viability
cell viability, combination with cisplatin [1]: dramatic decrease in cell viability
cell viability, single agent ([1]; WST-1): only decreased cell viability at very high inhibitor doses

SMILES: Cc1[nH]c(/C=C2\C(=O)Nc3ccc(S(=O)(=O)Cc4c(Cl)cccc4Cl)cc32)c(C)c1C(=O)N1CCC[C@@H]1CN1CCCC1 [PHA665752]
cytotoxicity of combination treatment [1]: significantly enhanced cytotoxicity
cell viability, combined dosing with AG1478 ([1]; WST-1): synergistically sensitize
